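Exposure lasted 48 hours, with cells grown in 96-well plates and compounds tested at five concentrations. Here, GI50 denotes the concentration required for 50% inhibition of growth. TGI: total growth inhibition.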
Experiments:
Assay in all cases: growth of human tumour cells (NCI), 48 h
OVCAR-8 ovarian = test system: OVCAR-8 ovarian
LOX IMVI melanoma = test system: LOX IMVI melanoma
SK-MEL-2 melanoma = test system: SK-MEL-2 melanoma
IGROV1 ovarian = test system: IGROV1 ovarian
NCI-H226 lung = test system: NCI-H226 lung
DU-145 prostate = test system: DU-145 prostate
MDA-MB-231 breast = test system: MDA-MB-231 breast
SK-MEL-28 melanoma = test system: SK-MEL-28 melanoma
786-0 renal = test system: 786-0 renal
SR leukemia = test system: SR leukemia

| Compound | GI50 (OVCAR-8 ovarian) | TGI (OVCAR-8 ovarian) | GI50 (LOX IMVI melanoma) | TGI (LOX IMVI melanoma) | GI50 (SK-MEL-2 melanoma) | TGI (SK-MEL-2 melanoma) | GI50 (IGROV1 ovarian) | TGI (IGROV1 ovarian) | GI50 (NCI-H226 lung) | TGI (NCI-H226 lung) | GI50 (DU-145 prostate) | TGI (DU-145 prostate) | GI50 (MDA-MB-231 breast) | TGI (MDA-MB-231 breast) | GI50 (SK-MEL-28 melanoma) | TGI (SK-MEL-28 melanoma) | GI50 (786-0 renal) | TGI (786-0 renal) | TGI (SR leukemia) | GI50 (SR leukemia) |
| --- | --- | --- | --- | --- | --- | --- | --- | --- | --- | --- | --- | --- | --- | --- | --- | --- | --- | --- | --- | --- |
| CC(=O)OC1Oc2ccccc2-c2oc(=O)c(-c3cc4ccccc4oc3=O)cc21 (stereo unspecified) | 17.8 µM | 36.7 µM | 14.9 µM | 29.6 µM | 35 µM | > 100 µM | 20.5 µM | 48.6 µM | 17.1 µM | 35.4 µM | 20.1 µM | 52.5 µM | 17.4 µM | 35 µM | 32.7 µM | 87.3 µM | 16.6 µM | 31.3 µM |  |  |
| N#CC1C2CCC3(CC2CCN1C(=O)c1ccccc1)OCCO3 (stereo unspecified) |  | > 100 µM |  | > 100 µM |  | 61.9 µM |  | > 100 µM |  |  |  |  |  |  |  | > 100 µM |  | > 100 µM | > 100 µM |  |
| O=[N+]([O-])c1ccc(Cl)cc1N/N=C/c1cccc2cccnc12 |  | > 100 µM |  |  |  |  |  | > 100 µM |  |  |  | > 100 µM |  | > 100 µM |  | > 100 µM |  | > 100 µM | 38 µM |  |
| COc1cc(/C=C2\C(=O)Nc3cccc(Cl)c32)cc(OC)c1OC | > 100 µM | > 100 µM | > 100 µM | > 100 µM | > 100 µM | > 100 µM | > 100 µM | > 100 µM | > 100 µM | > 100 µM |  |  | 33.3 µM | > 100 µM | > 100 µM | > 100 µM | 41.8 µM | > 100 µM | 25.1 µM | 1.55 µM |
| COc1ccc(N(/C=C/C(=O)C(F)(F)F)CC(=O)c2ccc(Cl)c(Cl)c2)cc1 | 13.2 µM | 36.6 µM | 11.8 µM | 27.4 µM | 19.6 µM | 44 µM | 22.8 µM | 60.9 µM | 18.5 µM | 37.9 µM | 11.3 µM | 24.6 µM | 14.4 µM | 38.6 µM | 28.1 µM | 79.4 µM | 15.5 µM | 29.5 µM |  |  |
| O=C1CCS/C(=N\S(=O)(=O)c2ccc(N3N=C4c5ccccc5CC4C3c3cccs3)cc2)N1C(=O)c1ccccc1 (stereo unspecified) | 0.816 µM | 17.5 µM | 7.61 µM | 23.8 µM | 29.4 µM | > 100 µM | 14.5 µM | 29.9 µM | 15.9 µM | 41 µM | 23.2 µM | > 100 µM | 5.77 µM | 26.8 µM | 50.2 µM | > 100 µM | 14.1 µM | 27.2 µM |  |  |
| CC1C(=O)O[C@H]2C1CC[C@@]1(C)[C@H](O)CC[C@@]13C[C@]2(O)OO3 (stereo partly specified) |  | > 100 µM |  | > 100 µM |  |  |  | > 100 µM |  | > 100 µM |  |  |  |  |  | > 100 µM |  | > 100 µM | > 100 µM |  |
| N#Cc1ccc2c(c1)C(=O)c1c-2n(CCCN)c(=O)c2cc([N+](=O)[O-])ccc12 | 0.29 µM | 3.62 µM | 0.0696 µM | 1.08 µM | 0.0534 µM | 1.29 µM | 0.0712 µM | 1.24 µM |  |  | 0.11 µM | 1.41 µM | 1.5 µM | 3.04 µM | 0.975 µM | 2.59 µM | 0.61 µM | 2.16 µM | 1.26 µM | 0.0184 µM |

Source: PubChem BioAssay (NCI)
